From BindingDB's records for doi:10.1021/jm0102203 (Glaxosmithkline, 2001)

Experiment: Ability to inhibit Human cytomegalovirus (HCMV) protease activity

IC50	SMILES
500 µM	C[C@@H]1C(=O)N(c2ccc([N+](=O)[O-])cc2[N+](=O)[O-])[C@H]2CCN(C(=O)OCc3ccccc3)C12 (stereo partly drawn) [4-(2,4-Dinitro-phenyl)-6-methyl-5-oxo-hexahydro-pyrrolo[3,2-b]pyrrole-1-carboxylic acid benzyl ester]
> 500 µM	CC(=O)C=CN1C(=O)[C@@H](C)C2[C@@H]1CCN2C(=O)OCc1ccccc1 (stereo partly drawn) [6-Methyl-5-oxo-4-(3-oxo-but-1-enyl)-hexahydro-pyrrolo[3,2-b]pyrrole-1-carboxylic acid benzyl ester]
250 µM	C[C@@H]1C(=O)N(C(=O)n2cccc2)[C@H]2CCN(C(=O)OCc3ccccc3)C12 (stereo partly drawn) [6-Methyl-5-oxo-4-(pyrrole-1-carbonyl)-hexahydro-pyrrolo[3,2-b]pyrrole-1-carboxylic acid benzyl ester]
